# Source: patent publication US4162307A, “Method for anaesthesia by use of a pentapeptide” (priority 1977, dated 1979)
# Where a name gives a salt, the structure may show the parent alone.
# What was measured:
# mouse hot plate = test: Analgesia in mice in the hot plate test; format: in vivo
# Method: (A) Analgesia in mice in the hot plate test (modification of the method of Eddy, N. B. et al., J. Pharm. Exp. Therap. (1953) 107, 385, the peptide being administered by intracerebroventricular injection).
# (§1) From the data obtained the respective ED50 figures were calculated (i.e. the dose required to elicit the appropriate effect in 50% of the animals). N.T.: not tested.
# [1] = tested on: castor oil-induced diarrhoea; test: Antidiarrhoeal activity in the rat (castor oil); format: in vivo
# Method: (B) Antidiarrhoeal activity in the rat. In this procedure rats were straved for 24 hours, the peptide then administered either subcutaneously or orally followed after 15 minutes by 1 ml castor oil per rat given orally.
# as §1
# [2] = tested on: citric acid aerosol-induced coughs; test: Antitussive testing, citric acid aerosol; format: in vivo, guinea-pigs
# Method: J. Pharmacol, 39, (1970) 225.
# (C) For antitussive testing, guinea-pigs are subjected to an aerosol containing 20% citric acid, 30 minutes after administration of compound (orally or subcutaneously). The number of coughs during a five minute exposure are counted and meaned for six animals per treatment. The method is that described by Boura, A. L. A., Green, A. F. and Saunders, I. A. Br. J. Pharmac., May 1970, Vol. 39, No. 1, page 225.
# as §1
# [3] = tested on: righting, pinnal and corneal reflexes; test: Anaesthetic effects following intracerebroventricular injection in mice (loss of righting, pinnal and corneal reflexes); format: in vivo; settings: mouse, loss of all three reflexes
# [4] = tested on: righting, pinnal and corneal reflexes; test: Anaesthetic effects tested intravenously; format: in vivo, mice; settings: loss of all three reflexes
# Method: (D) Compounds are tested for anaesthetic effects following intracerebroventricular injection in mice. The animals are observed for loss of righting reflex (failure to roll over within 10 seconds of being turned on their backs), loss of pinnal reflex (failure to flick the ear in response to a light touch at the base of the pinna) and loss of corneal reflex (failure to blink when the cornea is touched lightly). Loss of all three reflexes constitutes anaesthesia. In addition, any other effects are noted. […] Interesting compounds are then tested intravenously in the same manner.
# as §1
# [5] = tested on: righting, pinnal and corneal reflexes; test: Anaesthesia in laboratory animals (abolition of reflexes), standard pharmacological procedures; format: in vivo, rats and mice
# [6] = tested on: isolated mouse vas deferens; test: Neurally evoked contractions of the isolated mouse vas deferens
# [7] = tested on: isolated guinea-pig ileum; test: Electrically-induced contractions of the isolated guinea-pig ileum; settings: 0.1 Hz; 0.4 ms; 30-40 V
# Source text: (Each intestinal segment was impaled by the anode and suspended with a 2-3 g load. Stimulus parameters: frequency: 0.1 Hz; duration: 0.4 ms; voltage (supramaximal) 30-40 V; the contractions were transduced isotonically).
smiles,measurement,setting,value
CCNC(=O)[C@@H](CC(C)C)NC(=O)[C@H](Cc1ccccc1)NC(=O)CNC(=O)[C@@H](C)NC(=O)[C@@H](N)Cc1ccc(O)cc1 [H.Tyr.D-Ala.Gly.Phe.D-Leu.NHEt hydrochloride],"ED50 mouse hot plate, analgesia","mouse hot plate; i.c.v., dose eliciting the effect in 50% of the animals",0.03 μg/mouse
same,ED50 anti-diarrhoea,"[1]; rat, s.c., castor oil 1 ml orally 15 minutes after peptide",10 mg/kg
same,ED50 antitussive,"[2]; guinea-pig, 20% citric acid aerosol 30 minutes after administration, route not printed in table (orally or subcutaneously)",2.0 mg/kg
same,ED50 anaesthesia i.c.v.,[3],2.8 μg/mouse
same,ED50 anaesthesia i.v.,[4],20 mg/kg
"CN1CC[C@]23c4c5ccc(O)c4O[C@H]2[C@@H](O)C=C[C@H]3[C@H]1C5 [morphine, reference compound]","Effect on the righting reflex, morphine by acute bolus injection","[5]; mice, acute bolus injection in up to lethal doses",does not abolish the righting reflex
"CCNC(=O)[C@@H](CC(C)C)NC(=O)[C@H](Cc1ccccc1)NC(=O)CNC(=O)[C@@H](C)NC(=O)[C@@H](N)Cc1ccc(O)cc1 [peptide of formula (I), h.tyr.D-Ala.Gly.Phe.D-Leu.NHEt]",Naloxone sensitivity of analgesic activity,"mouse hot plate; mice, hot plate, naloxone",abolished by naloxone
same,"Analgesic activity, hot plate","mouse hot plate; mice, intracerebroventricular injection",exhibits analgesic activity
same,Antidiarrhoeal activity,"[1]; rats, castor oil-induced diarrhoea",effective in reducing castor oil-induced diarrhoea
same,Antitussive activity,[2]; guinea-pigs,exhibits antitussive activity
same,Naloxone sensitivity of vas deferens inhibition,[6]; naloxone,abolished by the known narcotic antagonist naloxone
same,Effect on neurally evoked contractions of isolated mouse vas deferens,[6]; pulses at 0.1 Hz,Inhibition of neurally evoked contractions
same,Effect on electrically-induced contractions of isolated guinea-pig ileum,[7],Reduction of electrically-induced contractions
same,Reversal of reflex-abolishing effects by naloxone,"[5]; effects (i), (ii) and (iii), naloxone administered",may be reversed by administration of the known narcotic antagonist naloxone
same,Effect on the corneal reflex,[5]; laboratory animals,Abolition of the corneal reflex
same,Effect on the pinnal reflex,[5]; laboratory animals,Abolition of the pinnal reflex
same,Effect on the righting reflex,[5]; laboratory animals,Abolition of the righting reflex
same,Induction and maintenance of anaesthesia,"[5]; rats and mice, parenteral, e.g. intravenous or intracerebroventricular injection",both to induce and to maintain anaesthesia
